Source: PubChem BioAssay (NCI)
Where “and” joins values, the source holds several entries; their conditions need not be identical. Equal values may be shown once.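 Five concentrations, 48 hours, 96-well plates. GI50: concentration for 50% inhibition of growth. Definition used: TGI = concentration required for complete inhibition of growth.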

What was measured:
Test in all cases: NCI-60 cell line screen, 48 h
[1] = tested on: SW-620 colon
[2] = tested on: DU-145 prostate
[3] = tested on: MALME-3M melanoma
[4] = tested on: UO-31 renal
[5] = tested on: PC-3 prostate
[6] = tested on: SK-MEL-2 melanoma
[7] = tested on: NCI-H460 lung
[8] = tested on: OVCAR-8 ovarian
[9] = tested on: IGROV1 ovarian
[10] = tested on: CCRF-CEM leukemia

CC(C)CCOc1ccc(-c2n[nH]c(C(F)(F)F)c2-c2cncc(C#N)c2)c(O)c1
GI50 [1]: 3.44 µM | TGI [1]: > 100 µM | GI50 [2]: 4.18 µM | TGI [2]: 46.3 µM | GI50 [3]: 1.85 µM | TGI [3]: 6.56 µM | GI50 [4]: 1.98 µM | TGI [4]: 7.61 µM | GI50 [5]: 2.12 µM | TGI [5]: > 100 µM | GI50 [6]: 1.75 µM | TGI [6]: 5.3 µM | GI50 [7]: 2.5 µM | TGI [7]: 12.5 µM | GI50 [8]: 2.78 µM | TGI [8]: 19.1 µM | GI50 [9]: 3.35 µM | TGI [9]: > 100 µM

CC[C@H]1CN2CCc3cc(OC)c(OC)cc3[C@@H]2C[C@@H]1C[C@H]1NCCc2cc(O)c(OC)cc21
TGI [1]: 0.0585 µM and < 0.0212 µM and 0.19 µM | GI50 [2]: 0.0233 µM | TGI [2]: 0.0637 µM and 0.137 µM | TGI [3]: 0.0795 µM and 0.355 µM and 0.265 µM | TGI [4]: 0.15 µM and 1.17 µM | GI50 [5]: 0.0243 µM | TGI [6]: 0.0493 µM and 0.0294 µM and 0.0532 µM | TGI [7]: 0.0586 µM and 0.0651 µM and 0.186 µM | TGI [8]: 0.0519 µM and < 0.0323 µM and 0.165 µM

OCCCN=NNc1ccc(-c2nc3ccccc3[nH]2)cc1
GI50 [1]: 3.04 µM | TGI [1]: > 100 µM | GI50 [2]: 4.12 µM | TGI [2]: > 100 µM | GI50 [4]: 23.9 µM | TGI [4]: 78.1 µM | GI50 [5]: 24.1 µM | TGI [5]: 77.5 µM | GI50 [6]: 14.5 µM | TGI [6]: 48.1 µM | GI50 [10]: 0.644 µM | TGI [10]: > 100 µM | GI50 [7]: 4.65 µM | TGI [7]: > 100 µM | GI50 [8]: 3.12 µM | TGI [8]: > 100 µM | GI50 [9]: 5.26 µM | TGI [9]: 45.8 µM

CCn1cc(/C=C/C(C)c2cn(CC)c(=O)[nH]c2=O)c(=O)[nH]c1=O (stereo unspecified)
TGI [1]: > 100 µM | TGI [3]: > 100 µM | TGI [4]: > 100 µM | TGI [6]: > 100 µM | TGI [10]: > 100 µM | TGI [7]: > 100 µM | TGI [8]: > 100 µM | TGI [9]: > 100 µM

CC1=CC(=O)CCC2(C)C1CC[C@@H]2OC=O (stereo partly specified)
TGI [1]: > 100 µM | TGI [4]: > 100 µM | TGI [6]: > 100 µM | TGI [10]: > 100 µM | TGI [7]: > 100 µM | TGI [8]: > 100 µM | TGI [9]: > 100 µM

COc1ccc(-c2ccc(/C=N/n3c(COc4ccccc4Cl)nn(CN4CCN(C)CC4)c3=S)o2)c([N+](=O)[O-])c1
GI50 [3]: 20.9 µM | TGI [3]: 49.2 µM | GI50 [4]: 30.1 µM | TGI [4]: > 100 µM | GI50 [5]: 15.3 µM | TGI [5]: 58.2 µM | GI50 [6]: 31.6 µM | TGI [6]: 83.3 µM | GI50 [10]: 21.7 µM | TGI [10]: > 100 µM | GI50 [7]: 14.7 µM | TGI [7]: 37.6 µM | GI50 [8]: 17.3 µM | TGI [8]: 42.2 µM

COc1cc2c(cc1OCCOS(C)(=O)=O)N=C[C@@H]1CCCN1C2=O
GI50 [1]: 14.6 µM | TGI [1]: 38.4 µM | TGI [2]: > 100 µM | GI50 [3]: 13.6 µM | TGI [3]: 31.6 µM | GI50 [4]: 15.2 µM | TGI [4]: 33.1 µM | TGI [6]: > 100 µM | GI50 [10]: 14.5 µM | TGI [10]: 54.9 µM | TGI [7]: > 100 µM | TGI [8]: > 100 µM | TGI [9]: 99.1 µM

COc1ccc(/C(=N/NC(=O)NN)C(c2ccc(OC)cc2)C2(O)CNc3c(Cl)cc(Cl)cc32)cc1 (stereo unspecified)
TGI [1]: > 100 µM | TGI [3]: > 100 µM | TGI [4]: > 100 µM | TGI [6]: > 100 µM | TGI [10]: > 100 µM | TGI [7]: > 100 µM | TGI [8]: > 100 µM | TGI [9]: > 100 µM

C=C/C=C(\NC(=O)C(Cl)(Cl)Cl)[Si](C)(C)C
TGI [1]: > 100 µM | TGI [3]: > 100 µM | TGI [4]: > 100 µM | TGI [6]: > 100 µM | TGI [10]: > 100 µM | TGI [7]: > 100 µM | TGI [8]: > 100 µM | TGI [9]: > 100 µM

COC1(OC)CC2C=C(S(=O)(=O)c3ccccc3)C1N(Cc1ccccc1)C2=O (stereo unspecified)
TGI [1]: 76.8 µM | TGI [3]: > 100 µM | TGI [4]: > 100 µM | TGI [10]: 90.9 µM | TGI [7]: > 100 µM | TGI [8]: 64.7 µM | TGI [9]: > 100 µM

CC(=O)C1CC=C(C)CC1 (stereo unspecified)
TGI [1]: > 100 µM | TGI [3]: > 100 µM | TGI [4]: > 100 µM | TGI [6]: > 100 µM | TGI [10]: > 100 µM | TGI [7]: > 100 µM | TGI [8]: > 100 µM | TGI [9]: > 100 µM

COC1=CC(O)(CC(N)=O)c2ccccc2C1=O (stereo unspecified)
TGI [1]: > 100 µM | TGI [3]: > 100 µM | TGI [4]: > 100 µM | TGI [6]: > 100 µM | TGI [10]: > 100 µM | TGI [7]: > 100 µM | TGI [8]: > 100 µM | TGI [9]: > 100 µM

O=C(OCc1ccccc1)N1CCN(/[N+]([O-])=N/Oc2ccc([N+](=O)[O-])cc2[N+](=O)[O-])CC1
GI50 [1]: 3.79 µM | TGI [1]: > 100 µM | GI50 [2]: 5.56 µM | TGI [2]: 18.7 µM | GI50 [4]: 3.82 µM | TGI [4]: > 100 µM | GI50 [5]: 14.2 µM | TGI [5]: 28.5 µM | GI50 [6]: 19.1 µM | TGI [6]: 57 µM | GI50 [7]: 9.96 µM | TGI [7]: 40.6 µM | GI50 [8]: 31.5 µM | TGI [8]: > 100 µM | GI50 [9]: 2.01 µM | TGI [9]: 23.2 µM

CC1C[C@H](OC(N)=O)C(C)CC1=O (stereo partly specified)
TGI [1]: > 100 µM | TGI [3]: > 100 µM | TGI [4]: > 100 µM | TGI [6]: > 100 µM | TGI [10]: > 100 µM | TGI [7]: > 100 µM | TGI [8]: > 100 µM | TGI [9]: > 100 µM

CCC[CH2][Sn]([CH2]CCC)([O]C(=O)c1cc(F)cc(F)c1)[O]C(=O)c1cc(F)cc(F)c1
GI50 [1]: 0.564 µM | TGI [1]: 1.81 µM | GI50 [3]: 0.508 µM | TGI [3]: 1.75 µM | GI50 [4]: 1.44 µM | TGI [4]: 2.75 µM | GI50 [6]: 0.298 µM | TGI [6]: 1.24 µM | GI50 [7]: 1.54 µM | TGI [7]: 3.02 µM | GI50 [8]: 1.39 µM | TGI [8]: 2.68 µM | GI50 [9]: 1.55 µM | TGI [9]: 2.94 µM

O=C1C(Br)=CC2(C=C1Br)CCN=c1c2c(O)c2nc3ccccc3c3ccnc1c23
GI50 [1]: 0.712 µM | TGI [1]: 1.72 µM | GI50 [2]: 1.95 µM | TGI [2]: 24.8 µM | GI50 [3]: 1.41 µM | TGI [3]: 3.44 µM | GI50 [4]: 0.761 µM | TGI [4]: 1.55 µM | GI50 [5]: 1.44 µM | TGI [5]: 5.27 µM | GI50 [10]: 0.132 µM | TGI [10]: 0.612 µM | GI50 [7]: 2.48 µM | TGI [7]: 10.6 µM | GI50 [8]: 0.918 µM | TGI [8]: 2.39 µM | GI50 [9]: 0.846 µM | TGI [9]: 7.22 µM

CCn1c2c(n(CC)c1=S)-c1c(n(CC)c(=S)n1CC)SSSS2
TGI [1]: 3.29 µM | TGI [2]: > 100 µM | TGI [3]: 9.08 µM | TGI [4]: 21.5 µM | TGI [6]: 31.2 µM | TGI [10]: 9.42 µM | TGI [7]: > 77.9 µM | TGI [8]: 23.3 µM | TGI [9]: 34.3 µM

Cc1cc(N(CCC#N)S(C)(=O)=O)ccc1C=O
TGI [1]: > 100 µM | TGI [3]: > 100 µM | TGI [4]: > 100 µM | TGI [6]: > 100 µM | TGI [10]: > 100 µM | TGI [7]: > 100 µM | TGI [8]: > 100 µM | TGI [9]: > 100 µM

Brc1ccc(-c2nnc(-c3nn(-c4ccccc4)c4nc5ccccc5nc34)o2)cc1
TGI [1]: > 100 µM | TGI [4]: > 100 µM | TGI [6]: > 100 µM | TGI [10]: > 100 µM | TGI [7]: > 100 µM | TGI [8]: > 100 µM | TGI [9]: > 100 µM
